Data published in PubChem BioAssay (NCI).
Values joined by “and” are separate entries in the source; they are usually repeats but may differ in a detail not shown here. Equal values may be shown once.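 Dose response: 5 concentrations. Exposure: 48 h. Format: 96-well plates. Endpoint: linear interpolation; highest concentration if not reached. Abbreviation: GI50, concentration required for 50% inhibition of growth. TGI marks complete inhibition of growth.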

Assays:
Assay in all cases: NCI anticancer screen, dose series, 48 h
NCI-H460 lung = system: NCI-H460 lung
UACC-257 melanoma = system: UACC-257 melanoma
SF-539 CNS = system: SF-539 CNS
NCI-H23 lung = system: NCI-H23 lung
HOP-62 NSCLC = system: HOP-62 NSCLC
OVCAR-5 ovarian = system: OVCAR-5 ovarian
SK-OV-3 ovarian = system: SK-OV-3 ovarian
SR leukemia = system: SR leukemia

## CCOP(=O)(OCC)C(F)(F)c1ccc(CC(NC(=O)OC(C)(C)C)C(=O)O)cc1 (configuration not stated)
NCI-H460 lung
  TGI: > 10 µM
UACC-257 melanoma
  TGI: > 10 µM
SF-539 CNS
  TGI: > 10 µM
NCI-H23 lung
  TGI: > 10 µM
HOP-62 NSCLC
  TGI: > 10 µM
OVCAR-5 ovarian
  TGI: > 10 µM
SK-OV-3 ovarian
  TGI: > 10 µM

## N#CC(Cc1ccccc1)N(CCC1=CCCCC1)C(c1ccccc1)c1ccccc1 (configuration not stated)
NCI-H460 lung
  TGI: > 100 µM
UACC-257 melanoma
  TGI: > 100 µM
NCI-H23 lung
  TGI: > 100 µM
HOP-62 NSCLC
  TGI: > 100 µM
OVCAR-5 ovarian
  TGI: > 100 µM
SK-OV-3 ovarian
  TGI: > 100 µM

## COc1cccc(Nc2nc(-c3cccs3)nc3cc(OC)c(OC)cc23)c1
NCI-H460 lung
  TGI: 79.4 µM
UACC-257 melanoma
  TGI: > 100 µM
SF-539 CNS
  TGI: 45.7 µM
NCI-H23 lung
  TGI: 89.7 µM
HOP-62 NSCLC
  TGI: 62.7 µM
OVCAR-5 ovarian
  TGI: > 100 µM
SR leukemia
  TGI: 76.9 µM
SK-OV-3 ovarian
  TGI: > 100 µM

## COc1ncc(/C=C2\OC(=O)c3ccccc32)c(OC)n1
NCI-H460 lung
  TGI: > 100 µM
UACC-257 melanoma
  TGI: > 100 µM
SF-539 CNS
  TGI: > 100 µM
NCI-H23 lung
  TGI: > 100 µM
HOP-62 NSCLC
  TGI: 66 µM
OVCAR-5 ovarian
  TGI: > 100 µM
SR leukemia
  TGI: > 100 µM

## CC(=O)Nc1nc(NC(C)=O)c2[nH]c(CO)nc2n1
NCI-H460 lung
  TGI: > 100 µM
UACC-257 melanoma
  TGI: > 100 µM
SF-539 CNS
  TGI: > 100 µM
NCI-H23 lung
  TGI: > 100 µM
HOP-62 NSCLC
  TGI: > 100 µM
OVCAR-5 ovarian
  TGI: > 100 µM
SR leukemia
  TGI: > 100 µM
SK-OV-3 ovarian
  TGI: > 100 µM

## O=C(OCc1ccccc1)N1CCNCCN(C(=O)OCc2ccccc2)CCNCC1
NCI-H460 lung
  TGI: 49.4 µM
UACC-257 melanoma
  TGI: 46.3 µM
SF-539 CNS
  TGI: 29.2 µM
HOP-62 NSCLC
  TGI: 33.4 µM
OVCAR-5 ovarian
  TGI: > 100 µM
SR leukemia
  TGI: > 100 µM
SK-OV-3 ovarian
  TGI: > 100 µM

## Cc1ccc(-c2cc(-c3ccco3)c(C#N)c(=S)n2C2OC(CO)C(O)C(O)C2O)cc1 (configuration not stated)
NCI-H460 lung
  TGI: > 100 µM
UACC-257 melanoma
  TGI: > 100 µM
SF-539 CNS
  GI50: 11.5 µM and 37.2 µM
  TGI: 28 µM and > 100 µM
NCI-H23 lung
  GI50: 19.7 µM and 51.9 µM
  TGI: 90.4 µM and > 100 µM
HOP-62 NSCLC
  GI50: 6.31 µM and 28 µM
  TGI: 54.1 µM and > 100 µM
OVCAR-5 ovarian
  TGI: > 100 µM
SK-OV-3 ovarian
  GI50: 2510 nM and 21900 nM
  TGI: 10.7 µM and > 100 µM

## CC(=O)/C=C/C1=C(C)CCCC1(C)CC(C)C (configuration not stated)
NCI-H460 lung
  TGI: > 100 µM
UACC-257 melanoma
  TGI: 84 µM
SF-539 CNS
  TGI: > 100 µM
NCI-H23 lung
  TGI: > 100 µM
HOP-62 NSCLC
  TGI: > 100 µM
OVCAR-5 ovarian
  TGI: > 100 µM
SR leukemia
  TGI: 36.8 µM
SK-OV-3 ovarian
  TGI: > 100 µM

## N=c1nnc2ccc(Cl)cc2n1O
UACC-257 melanoma
  TGI: > 100 µM
NCI-H23 lung
  TGI: > 100 µM
HOP-62 NSCLC
  TGI: > 100 µM
OVCAR-5 ovarian
  TGI: > 100 µM
SR leukemia
  TGI: > 100 µM
SK-OV-3 ovarian
  TGI: > 100 µM

## CC1CN(C)c2ccccc2N=C1NN (configuration not stated)
NCI-H460 lung
  TGI: > 100 µM
UACC-257 melanoma
  TGI: > 100 µM
NCI-H23 lung
  TGI: > 100 µM
HOP-62 NSCLC
  TGI: > 100 µM
OVCAR-5 ovarian
  TGI: > 100 µM
SK-OV-3 ovarian
  TGI: > 100 µM

## Nn1c(Nc2ccc(S(=O)(=O)Nc3ncccn3)cc2)nnc(/C=C/c2c(O)ccc3ccccc23)c1=O
NCI-H460 lung
  TGI: 69.2 µM
UACC-257 melanoma
  TGI: 55.2 µM
NCI-H23 lung
  TGI: 45.6 µM
HOP-62 NSCLC
  TGI: > 100 µM
OVCAR-5 ovarian
  TGI: 91.9 µM
SR leukemia
  TGI: 66.8 µM

## C=C1CCN2CC[C@@H](OC(=O)/C(C)=C\C)[C@@H]12
NCI-H460 lung
  TGI: > 100 µM
UACC-257 melanoma
  TGI: > 100 µM
SF-539 CNS
  TGI: > 100 µM
NCI-H23 lung
  TGI: > 100 µM
HOP-62 NSCLC
  TGI: > 100 µM
OVCAR-5 ovarian
  TGI: > 100 µM
SR leukemia
  TGI: > 100 µM
SK-OV-3 ovarian
  TGI: > 100 µM

## O=C1c2cc3c(cc2-c2c1c1ccc(F)cc1c(=O)n2C[C@H](O)[C@@H](O)[C@H](O)CO)OCO3
SF-539 CNS
  GI50: 0.0289 µM
  TGI: 0.138 µM
NCI-H23 lung
  GI50: 0.046 µM
  TGI: 0.256 µM
HOP-62 NSCLC
  GI50: 0.0324 µM
  TGI: 0.27 µM
OVCAR-5 ovarian
  GI50: 222 nM
  TGI: 0.782 µM
SK-OV-3 ovarian
  GI50: 32.4 nM
  TGI: 0.22 µM

## O=C(Cc1ccc(O)c(O)c1)NCc1c[nH]c2ccccc12
NCI-H460 lung
  TGI: > 100 µM
UACC-257 melanoma
  TGI: > 100 µM
SF-539 CNS
  TGI: > 100 µM
NCI-H23 lung
  TGI: > 100 µM
HOP-62 NSCLC
  TGI: > 100 µM
OVCAR-5 ovarian
  TGI: > 100 µM
SK-OV-3 ovarian
  TGI: > 100 µM

## Nc1nc(-c2ccccc2)nc2oc(-c3cccs3)nc12
NCI-H460 lung
  TGI: > 100 µM
UACC-257 melanoma
  TGI: > 100 µM
SF-539 CNS
  TGI: > 100 µM
NCI-H23 lung
  TGI: > 100 µM
HOP-62 NSCLC
  TGI: > 100 µM
OVCAR-5 ovarian
  TGI: > 100 µM
SR leukemia
  TGI: > 100 µM

## COc1ccc(-n2c(C)nc3ccc(NC(=S)Nc4ccccc4)cc3c2=O)cc1
NCI-H460 lung
  TGI: > 100 µM
UACC-257 melanoma
  TGI: > 100 µM
NCI-H23 lung
  TGI: > 100 µM
HOP-62 NSCLC
  TGI: > 100 µM
OVCAR-5 ovarian
  TGI: > 100 µM
SR leukemia
  TGI: > 100 µM

## O=C1CCCCC1CN1CCCCC1 (configuration not stated)
NCI-H460 lung
  TGI: > 100 µM
SF-539 CNS
  TGI: > 100 µM
NCI-H23 lung
  TGI: > 100 µM
HOP-62 NSCLC
  TGI: > 100 µM
OVCAR-5 ovarian
  TGI: > 100 µM
SR leukemia
  TGI: > 100 µM
SK-OV-3 ovarian
  TGI: > 100 µM

## O=C(c1ccccn1)C1(N2CCCCC2)CCCCC1
UACC-257 melanoma
  TGI: > 100 µM
SF-539 CNS
  TGI: > 100 µM
NCI-H23 lung
  TGI: > 100 µM
HOP-62 NSCLC
  TGI: > 100 µM
OVCAR-5 ovarian
  TGI: > 100 µM
SR leukemia
  TGI: > 100 µM
SK-OV-3 ovarian
  TGI: > 100 µM

## CCOC(=O)Nc1sc2c(c1C#N)CCCC2
NCI-H460 lung
  TGI: > 100 µM
UACC-257 melanoma
  TGI: > 100 µM
NCI-H23 lung
  TGI: > 100 µM
HOP-62 NSCLC
  TGI: > 100 µM
OVCAR-5 ovarian
  TGI: > 100 µM
SR leukemia
  TGI: > 100 µM
SK-OV-3 ovarian
  TGI: > 100 µM

## N#CC(NCc1cccc(CNC(C#N)c2ccccc2)c1)c1ccccc1 (configuration not stated)
UACC-257 melanoma
  TGI: > 100 µM
SF-539 CNS
  TGI: 26.1 µM
NCI-H23 lung
  TGI: > 100 µM
HOP-62 NSCLC
  TGI: > 100 µM
OVCAR-5 ovarian
  TGI: > 100 µM
SR leukemia
  TGI: > 100 µM
SK-OV-3 ovarian
  TGI: > 100 µM

## CCOC(=O)c1c(CN2CCCC2)n(-c2ccccc2)c2cc(Br)c(O)cc12
NCI-H460 lung
  TGI: 32.9 µM
UACC-257 melanoma
  TGI: 32.8 µM
NCI-H23 lung
  TGI: 42.8 µM
HOP-62 NSCLC
  TGI: 26.7 µM
OVCAR-5 ovarian
  TGI: 36.5 µM
SR leukemia
  TGI: 42.8 µM
SK-OV-3 ovarian
  TGI: 66.5 µM

## CC1(C(=O)O)CCC2(C)CCC3(C)C(=CC(=O)C4C5(C)CCC(O)C(C)(C)C5CCC43C)C2C1 (configuration not stated)
UACC-257 melanoma
  TGI: > 100 µM
SF-539 CNS
  TGI: 32.5 µM
NCI-H23 lung
  TGI: 44.8 µM
OVCAR-5 ovarian
  TGI: 82.9 µM
SR leukemia
  TGI: 61 µM
SK-OV-3 ovarian
  TGI: > 100 µM

## O=c1[nH]c(=S)[nH]c2c1C(c1ccc([N+](=O)[O-])cc1)c1c([nH]c(=S)[nH]c1=O)O2
NCI-H460 lung
  TGI: > 100 µM
UACC-257 melanoma
  TGI: > 100 µM
NCI-H23 lung
  TGI: > 100 µM
HOP-62 NSCLC
  TGI: > 100 µM
OVCAR-5 ovarian
  TGI: > 100 µM

## C#CCn1c(=O)c2ccccc2n(CC#C)c1=O
NCI-H460 lung
  TGI: > 10 µM
UACC-257 melanoma
  TGI: > 10 µM
SF-539 CNS
  TGI: > 10 µM
NCI-H23 lung
  TGI: > 10 µM
HOP-62 NSCLC
  TGI: > 10 µM
OVCAR-5 ovarian
  TGI: > 10 µM
SK-OV-3 ovarian
  TGI: > 10 µM

## Nc1nc2c(c(-c3cccc(Cl)c3)n1)COC/C2=C\c1cccc(Cl)c1
NCI-H460 lung
  TGI: > 100 µM
UACC-257 melanoma
  TGI: > 100 µM
SF-539 CNS
  TGI: > 100 µM
NCI-H23 lung
  TGI: > 100 µM
HOP-62 NSCLC
  TGI: > 100 µM
OVCAR-5 ovarian
  TGI: > 100 µM
SK-OV-3 ovarian
  TGI: > 100 µM

## COc1ccc(CN2C(=O)/C(=C\c3cc(OC)c(OC)c(OC)c3)c3ccccc32)cc1
NCI-H460 lung
  GI50: 2080 nM
  TGI: 4.09 µM
UACC-257 melanoma
  GI50: 2150 nM
  TGI: 6.67 µM
SF-539 CNS
  GI50: 2.17 µM
  TGI: 4.33 µM
NCI-H23 lung
  GI50: 2.35 µM
  TGI: 6.43 µM
HOP-62 NSCLC
  GI50: 2.42 µM
  TGI: 4.98 µM
OVCAR-5 ovarian
  GI50: 2710 nM
  TGI: 6.48 µM

## O=C(N/N=C/c1ccc(Cl)cc1)c1c(Cl)c(Cl)c(Cl)c(Cl)c1-c1nc2ccccc2[nH]1
NCI-H460 lung
  TGI: > 100 µM
SF-539 CNS
  TGI: > 100 µM
NCI-H23 lung
  TGI: > 100 µM
HOP-62 NSCLC
  TGI: > 100 µM
OVCAR-5 ovarian
  TGI: > 100 µM
SR leukemia
  TGI: > 100 µM
SK-OV-3 ovarian
  TGI: > 100 µM
